{"source": "patent US6469013B2", "about": "“Therapeutic compounds” (Parker Hughes Institute, priority 1998, dated 2002)", "key": {"M24-MET (Melanoma)": {"tested_on": "M24-MET (Melanoma)", "assay": "Methylcellulose clonogenic assay", "assay_type": "cell-based", "experimental": "(§1) The antileukemic activity of compound 6 against clonogenic tumor cells was examined using a methylcellulose colony assay system (Uckun, F. M., et al., J. Exp. Med. 163: 347-368, 1986; Messinger, Y., et al., Clin Cancer Res. 4: 165-70, 1998). In brief, cells (10^5/ml in RPMI-10% FBS) were treated overnight at 37° C. with compound 6 at varying concentrations. After treatment, cells were washed twice, plated at 10^4 or 10^5 cells/ml in RPMI-10% FMS-0.9% methylcellulose in Petri dishes, and cultured for 7 days at 37° C. in a humidified 5% CO2 incubator. Subsequently, leukemic cell (or tumor cell) colonies were enumerated using an inverted phase-contrast microscope. The percent inhibition of colony formation was calculated using the following formula:\n(§2) % Inhibition=1−mean number of colonies in test culture×100 mean number of colonies in control culture"}, "MOLT-3 (T-ALL)": {"tested_on": "MOLT-3 (T-ALL)", "assay": "Methylcellulose clonogenic assay", "assay_type": "cell-based", "settings": "MOLT-3, 100 μM", "experimental": "as §1, §2"}, "RAMOS (B-ALL)": {"tested_on": "RAMOS (B-ALL)", "assay": "Methylcellulose clonogenic assay", "assay_type": "cell-based", "experimental": "as §1, §2"}, "DAUDI (B-ALL)": {"tested_on": "DAUDI (B-ALL)", "assay": "Methylcellulose clonogenic assay", "assay_type": "cell-based", "experimental": "as §1, §2"}, "C57BL/6 recipients": {"tested_on": "C57BL/6 recipients", "assay": "Syngeneic islet graft function under long-term treatment", "assay_type": "in vivo, mouse", "settings": "50 mg/kg", "experimental": "Mice were fasted for 10 hours, and the glucose solution (1.5 g/kg body weight) was injected i.p. Before and after injection of glucose, blood samples were taken and blood glucose levels were measured (as described above) at 0, 30, 60 and 120 min time points.\nThe vehicle control—(n=3) and WHI-P131-treated C57BL/6 recipients (n=5) of islet allograft were sacrificed on day 14 post transplantation; Jak3 recipients (n=6) were sacrificed on day 100 post transplantation; the C57BL/6 recipients of syngeneic islets—vehicle control—(n=4) and WHI-P131-treated (n=5) were sacrificed on day 180 post transplantation. Kidneys bearing grafts were removed, fixed in 10% formalin and embedded in paraffin. Serial sections of graft area were cut and stained with hematoxylin and eosin. For insulin staining, sections were stained by immunoperoxidase method using 1:100 dilution of polyclonal guinea pig anti-insulin antibody (Gpx Insulin, Dako, Carpinteria, Calif.) and 1:100 dilution of secondary antibody conjugated to horse radish peroxidase (Guinea Pig Immunoglobulins HRP, Dako, Carpinteria, Calif.). Sections were briefly counterstained with hematoxylin and mounted for light microscopic examination."}}, "note": "pEC50: −log10 of the molar value."}
{"smiles": "COc1cc2ncnc(Nc3ccc(O)cc3)c2cc1OC", "note": "[WHI-P131, 4-(4′-hydroxyl-phenyl)-amino-6,7-dimethoxyquinazoline]", "values": [{"measurement": "Mean No. of Colonies/10^5 Cells", "setting": "M24-MET (Melanoma); 0.3 μM", "result": "312 (238, 386)"}, {"measurement": "Mean No. of Colonies/10^5 Cells", "setting": "M24-MET (Melanoma); 1 μM", "result": "287 (157, 418)"}, {"measurement": "Mean No. of Colonies/10^5 Cells", "setting": "M24-MET (Melanoma); 3 μM", "result": "390 (280, 500)"}, {"measurement": "Mean No. of Colonies/10^5 Cells", "setting": "M24-MET (Melanoma); 10 μM", "result": "301 (249, 353)"}, {"measurement": "Mean No. of Colonies/10^5 Cells", "setting": "M24-MET (Melanoma); 30 μM", "result": "599 (534, 664)"}, {"measurement": "inhibition at 0.3 µM", "setting": "M24-MET (Melanoma); Homo sapiens, M24met, 0.3 μM", "result": 0, "unit": "%"}, {"measurement": "inhibition at 1 µM", "setting": "M24-MET (Melanoma); Homo sapiens, M24met, 1 μM", "result": 0, "unit": "%"}, {"measurement": "inhibition at 3 µM", "setting": "M24-MET (Melanoma); Homo sapiens, M24met, 3 μM", "result": 0, "unit": "%"}, {"measurement": "inhibition at 10 µM", "setting": "M24-MET (Melanoma); Homo sapiens, M24met, 10 μM", "result": 0, "unit": "%"}, {"measurement": "inhibition at 30 µM", "setting": "M24-MET (Melanoma); Homo sapiens, M24met, 30 μM", "result": 0, "unit": "%"}, {"measurement": "inhibition at 100 µM", "setting": "MOLT-3 (T-ALL); Homo sapiens", "result": "> 99.9", "unit": "%"}, {"measurement": "Mean No. of Colonies/10^5 Cells", "setting": "MOLT-3 (T-ALL)", "result": "1 (1, 1)"}, {"measurement": "Mean No. of Colonies/10^5 Cells", "setting": "RAMOS (B-ALL); 30 μM", "result": "2 (0, 4)"}, {"measurement": "inhibition at 30 µM", "setting": "RAMOS (B-ALL); Homo sapiens", "result": 99.8, "unit": "%"}, {"measurement": "Mean No. of Colonies/10^5 Cells", "setting": "DAUDI (B-ALL); DAUDI, 0.3 μM", "result": "2030 (1700, 2360)"}, {"measurement": "Mean No. of Colonies/10^5 Cells", "setting": "DAUDI (B-ALL); DAUDI, 1 μM", "result": "2136 (1568, 2704)"}, {"measurement": "Mean No. of Colonies/10^5 Cells", "setting": "DAUDI (B-ALL); DAUDI, 3 μM", "result": "1406 (988, 1824)"}, {"measurement": "Mean No. of Colonies/10^5 Cells", "setting": "DAUDI (B-ALL); DAUDI, 10 μM", "result": "1149 (1054, 1244)"}, {"measurement": "Mean No. of Colonies/10^5 Cells", "setting": "DAUDI (B-ALL); DAUDI, 30 μM", "result": "29 (12, 46)"}, {"measurement": "pEC50", "setting": "DAUDI (B-ALL); Homo sapiens, DAUDI cells, read-out: EC50, inhibition of clonogenic growth", "result": 4.73}, {"measurement": "inhibition at 0.3 µM", "setting": "DAUDI (B-ALL); Homo sapiens, DAUDI, 0.3 μM", "result": 48.6, "unit": "%"}, {"measurement": "inhibition at 1 µM", "setting": "DAUDI (B-ALL); Homo sapiens, DAUDI, 1 μM", "result": 45.9, "unit": "%"}, {"measurement": "inhibition at 3 µM", "setting": "DAUDI (B-ALL); Homo sapiens, DAUDI, 3 μM", "result": 64.4, "unit": "%"}, {"measurement": "inhibition at 10 µM", "setting": "DAUDI (B-ALL); Homo sapiens, DAUDI, 10 μM", "result": 70.9, "unit": "%"}, {"measurement": "inhibition at 30 µM", "setting": "DAUDI (B-ALL); Homo sapiens, DAUDI, 30 μM", "result": 98, "unit": "%"}, {"measurement": "IPGTT, islet function vs controls", "setting": "C57BL/6 recipients; day 70", "result": "no significant difference in islet function"}, {"measurement": "nonfasting blood glucose", "setting": "C57BL/6 recipients; day 70 of treatment", "result": "124.6 ± 10.8", "unit": "mg/dL"}, {"measurement": "IPGTT, islet function vs controls", "setting": "C57BL/6 recipients; day 180", "result": "not different"}, {"measurement": "insulin expression in syngeneic grafts vs vehicle", "setting": "C57BL/6 recipients; day 180, immunohistochemistry", "result": "comparable"}, {"measurement": "non-fasting blood glucose level", "setting": "C57BL/6 recipients; day 180 post transplantation", "result": "115.2 ± 9.2", "unit": "mg/dL"}, {"measurement": "non-fasting blood glucose level vs vehicle control", "setting": "C57BL/6 recipients; entire period of 180 days", "result": "did not differ"}]}
